US9504684B2, “Syk inhibitors” (Gilead Sciences, Inc., priority 2014, dated 2016)
Structures can show the parent of a compound that is named as a salt.

Assays:
human hepatocytes = assay: Human Hepatocyte Stability Assay; assay type: in vitro ADME
Procedure: The human […] stability of the compounds as predicted hepatocyte clearance in L/hr/kg was assessed. Compounds to be tested were diluted to 200 μM (4 μl of 10 mM DMSO stock into 196 μl ACN:H2O (50:50). Propranolol was used as a positive control, and buffer only without hepatocytes as 0% control. These were further diluted 4 μl with 891 μl KHB buffer (InVitroGRO catalog number Z99074) to provide 2× dosing solution. To each well of 24 well plate, 250 μl of the 2× dosing solution was added to each well with 250 μl of hepatocytes cells (1×10^6 viable cells/ml per well) or KHB for control samples to achieve a final compound concentration of 1 μM during incubation. The final solvent concentration was 0.01% DMSO and 0.25% ACN. The culture plate was placed on a rocker and incubated at 37° C., 5% CO2. Samples were collected at time 0, 1, 3, and 6 hours. The loss of parent compound was determined using LC-MS methods against a standard curve.

[1] = cited from earlier work
[2] = in vivo; cited from earlier work
[3] = comparison table of Example 12, head prints "(units)", L/hr/kg per Example 11
[4] = predicted hepatocyte clearance, human hepatocytes, 1 μM compound

With `COc1ccc(Nc2nc(-c3cccc(N)c3)cn3ccnc23)cc1OC` [6-(3-aminophenyl)-N-(3,4-dimethoxyphenyl)imidazo[1,2-a]pyrazin-8-amine, reference compound] the “Hheps CL” value (human hepatocytes; [3]) was 4 mL/min/kg.
For `Cc1ncc(-c2cn3ccnc3c(Nc3ccc(N4CCOCC4)cc3)n2)cc1N` [6-(5-amino-6-methylpyridin-3-yl)-N-(4-morpholinophenyl)imidazo[1,2-a]pyrazin-8-amine, reference compound], the “Hheps CL” value (human hepatocytes; [3]) was 13.3 mL/min/kg.
With `Nc1cncc(-c2cn3ccnc3c(Nc3ccc(N4CCOCC4)cc3)n2)c1` [6-(5-aminopyridin-3-yl)-N-(4-morpholinophenyl)imidazo[1,2-a]pyrazin-8-amine, reference compound] the “Hheps CL” value (human hepatocytes; [3]) was 11.3 mL/min/kg.
With `COc1ccc(Nc2nc(-c3ccc(N)nc3)cn3ccnc23)cc1OC` [6-(6-aminopyridin-3-yl)-N-(3,4-dimethoxyphenyl)imidazo[1,2-a]pyrazin-8-amine, reference compound] the “Hheps CL” value (human hepatocytes; [3]) was 15 mL/min/kg.
For `Cc1ncc(-c2cn3ccnc3c(Nc3ccc(N4CCN(C5COC5)CC4)cc3)n2)nc1N` [Ex.-1, 6-(6-amino-5-methylpyrazin-2-yl)-N-(4-(4-(oxetan-3-yl)piperazin-1-yl)phenyl)imidazo[1,2-a]pyrazin-8-amine], the “Hheps CL” value (human hepatocytes; [3]) was 2 mL/min/kg and the “Hheps CL” value (human hepatocytes; [4]) was 2 mL/min/kg.
In the case of `Nc1cncc(-c2cn3ccnc3c(Nc3ccc(N4CCN(C5COC5)CC4)cc3)n2)n1` [Ex.-2, 6-(6-aminopyrazin-2-yl)-N-(4-(4-(oxetan-3-yl)piperazin-1-yl)phenyl)imidazo[1,2-a]pyrazin-8-amine], the “Hheps CL” value (human hepatocytes; [3]) is reported as 0.917 mL/min/kg and the “Hheps CL” value (human hepatocytes; [4]) is reported as 0.917 mL/min/kg.
For `Nc1cncc(-c2cn3ccnc3c(Nc3ccc(N4CCO[C@@H](CO)C4)cc3)n2)n1` [Ex.-3, (R)-(4-(4-((6-(6-aminopyrazin-2-yl)imidazo[1,2-a]pyrazin-8-yl)amino)phenyl)morpholin-2-yl)methanol], the “Hheps CL” value (human hepatocytes; [3]) was 1.5 mL/min/kg and the “Hheps CL” value (human hepatocytes; [4]) was 1.5 mL/min/kg.
With `Cc1c(-c2cncc(N)n2)nc(Nc2ccc(N3CCN(C4COC4)CC3)cc2)c2nccn12` [Ex.-4, 6-(6-aminopyrazin-2-yl)-5-methyl-N-(4-(4-(oxetan-3-yl)piperazin-1-yl)phenyl)imidazo[1,2-a]pyrazin-8-amine] the “Hheps CL” value (human hepatocytes; [3]) was 1.3 mL/min/kg and the “Hheps CL” value (human hepatocytes; [4]) was 1.3 mL/min/kg.
With `Nc1cncc(-c2cn3ccnc3c(Nc3ccc(N4CCN(C5COC5)CC4)c(OCCO)c3)n2)n1` [Ex.-5, 2-(5-((6-(6-aminopyrazin-2-yl)imidazo[1,2-a]pyrazin-8-yl)amino)-2-(4-(oxetan-3-yl)piperazin-1-yl)phenoxy)ethanol] the “Hheps CL” value (human hepatocytes; [3]) was 1.2 mL/min/kg and the “Hheps CL” value (human hepatocytes; [4]) was 1.2 mL/min/kg.
With `Nc1cncc(-c2cn3ccnc3c(Nc3ccc(N4CCN(CC(CO)CO)CC4)cc3)n2)n1` [Ex.-6, 2-((4-(4-((6-(6-aminopyrazin-2-yl)imidazo[1,2-a]pyrazin-8-yl)amino)phenyl)piperazin-1-yl)methyl)propane-1,3-diol] the “Hheps CL” value (human hepatocytes; [3]) was 1.3 mL/min/kg and the “Hheps CL” value (human hepatocytes; [4]) was 1.3 mL/min/kg.
With `Cc1ncc(-c2cn3ccnc3c(Nc3ccc(N4CCN(C5COC5)CC4)c(OCCO)c3)n2)nc1N` [Ex.-7, 2-(5-((6-(6-amino-5-methylpyrazin-2-yl)imidazo[1,2-a]pyrazin-8-yl)amino)-2-(4-(oxetan-3-yl)piperazin-1-yl)phenoxy)ethanol] the “Hheps CL” value (human hepatocytes; [3]) was 0.83 mL/min/kg and the “Hheps CL” value (human hepatocytes; [4]) was 0.83 mL/min/kg.
For `CC[C@]1(O)C[C@H]2CN(CCc3c([nH]c4ccccc34)[C@@](C(=O)OC)(c3cc4c(cc3OC)N(C=O)[C@H]3[C@@](O)(C(=O)OC)[C@H](OC(C)=O)[C@]5(CC)C=CCN6CC[C@]43[C@@H]65)C2)C1` [Vincristine Sulfate, vincristine sulfate], the “solubility in 95% ethanol” value ([1]; 95% ethanol) is given as “only slightly soluble”, the solubility in methanol ([1]; methanol) is given as “soluble in methanol” and the solubility in water ([1]; water) is given as “freely soluble”.
For `CC[C@]1(O)C[C@@H]2CN(CCc3c([nH]c4ccccc34)[C@@](C(=O)OC)(c3cc4c(cc3OC)N(C)[C@H]3[C@@](O)(C(N)=O)[C@H](O)[C@]5(CC)C=CCN6CC[C@]43[C@@H]65)C2)C1` [Vindesine, vindesine], the serum half-life [2] is listed as 24 h.
